Test system: HCV replicon cells
Assay: HCV replicon FRET / luciferase assay
Assay type: cell-based
Conditions: Hepatitis C virus
Excerpt: FRET Assay Preparation. To perform the HCV FRET screening assay, 96-well cell culture plates were used. The FRET peptide (Anaspec, Inc.) (Taliani et al., Anal. Biochem. 1996, 240, 60-67) contains a fluorescence donor, EDANS, near one end of the peptide and an acceptor, DABCYL, near the other end. The fluorescence of the peptide is quenched by […] resonance energy transfer (RET) between the donor and the acceptor, but as the NS3 protease cleaves the peptide the products are released from RET quenching and the fluorescence of the donor becomes apparent. The assay reagent was made as follows: 5× cell Luciferase cell culture lysis reagent from Promega (#E153A) diluted to 1× with dH2O, NaCl added to 150 mM final, the FRET peptide diluted to 20 μM final from a 2 mM stock.
To prepare plates, HCV replicon cells, with or without a Renilla luciferase reporter gene, were trypsinized and placed into each well of a 96-well plate with titrated test compounds added in columns 3 through 12; columns 1 and 2 contained a control compound (HCV protease inhibitor), and the bottom row contained cells without compound. The plates were then placed in a CO2 incubator at 37° C.
Assays. Subsequent to addition of the test compounds described above (FRET Assay Preparation), at various times the plate was removed and Alamar blue solution (Trek Diagnostics, #00-100) was added per well as a measure of cellular toxicity. After reading in a Cytoflour 4000 instrument (PE Biosystems), plates were rinsed with PBS and then used for FRET assay by the addition of 30 ul of the FRET peptide assay reagent described above (FRET Assay Preparation) per well. The plate was then placed into the Cytoflour 4000 instrument which had been set to 340 excite/490 emission, automatic mode for 20 cycles and the plate read in a kinetic mode. Typically, the signal to noise using an endpoint analysis after the reads was at least three-fold. Alternatively, after Alamar blue reading, plates were rinsed with PBS, 50 ul of DMEM (high glucose) without phenol red was added and plates were then used for luciferase assay using the Promega Dual-Glo Luciferase Assay System.
Compound analysis was determined by quantification of the relative HCV replicon inhibition and the relative cytotoxicity values. To calculate cytoxicity values, the average Alamar Blue fluorescence signals from the control wells were set as 100% non-toxic. The individual signals in each of the compound test wells were then divided by the average control signal and multiplied by 100% to determine […]. To calculate the HCV replicon inhibition values, an average background value was obtained from the two wells containing the highest amount of HCV protease inhibitor at the end of the assay period. These numbers were similar to those obtained from naïve Huh-7 cells.
The background numbers were then subtracted from the average signal obtained from the control wells and this number was used as 100% activity. The individual signals in each of the compound test wells were then divided by the averaged control values after background subtraction and multiplied by 100% to determine percent activity. EC50 values for a protease inhibitor titration were calculated as the concentration which caused a 50% reduction in FRET or luciferase activity. The two numbers generated for the compound plate, percent cytoxicity and percent activity were used to determine compounds of interest for further analysis.

| SMILES | EC50 |
| --- | --- |
| COc1ccc2c(c1)C=C(c1c(C(=O)N3C4COCC3COC4)cnn1CC(F)(F)F)Cn1c-2c(C2CCCCC2)c2ccc(C(=O)NS(=O)(=O)C(C)C)cc21 | 1 to 500 nM |
| COc1ccc2c(c1)C=C(c1c(C(=O)N3C4CCC3CN(C)C4)nnn1C(C)C)Cn1c-2c(C2CCCCC2)c2ccc(C(=O)NS(=O)(=O)N(C)C)cc21 | 1 to 500 nM |
| COc1ccc2c(c1)C=C(c1c(C(=O)N3C4CCC3CN(C)C4)ncn1C(C)C)Cn1c-2c(C2CCCCC2)c2ccc(C(=O)NS(=O)(=O)C(C)C)cc21 | 1 to 500 nM |
| CCn1ncc(C(=O)N2CC3CCC(C2)N3C)c1C1=Cc2cc(OC)ccc2-c2c(C3CCCCC3)c3ccc(C(=O)NS(=O)(=O)C(C)C)cc3n2C1 | 1 to 500 nM |
| CCn1nc(C)c(C(=O)N2C3CCC2CN(C)C3)c1C1=Cc2cc(OC)ccc2-c2c(C3CCCCC3)c3ccc(C(=O)NS(=O)(=O)C(C)C)cc3n2C1 | 1 to 500 nM |
| CCn1nc(C)c(C(=O)N2C3CCCC2COC3)c1C1=Cc2cc(OC)ccc2-c2c(C3CCCCC3)c3ccc(C(=O)NS(=O)(=O)C(C)C)cc3n2C1 | 1 to 500 nM |
| COc1ccc2c(c1)C=C(c1c(C(=O)N3C4CCCC3COC4)cnn1C(C)C)Cn1c-2c(C2CCCCC2)c2ccc(C(=O)NS(=O)(=O)C(C)C)cc21 | 1 to 500 nM |
| COc1ccc2c(c1)C=C(c1c(C(=O)N3C4CCC3CN(C)C4)c(C)nn1C(C)C)Cn1c-2c(C2CCCCC2)c2ccc(C(=O)NS(=O)(=O)C(C)C)cc21 | 1 to 500 nM |
| CCn1ncc(C(=O)N2C3CCC2CN(C)C3)c1C1=Cc2cc(OC)ccc2-c2c(C3CCCCC3)c3ccc(C(=O)NS(=O)(=O)C(C)C)cc3n2C1 | 1 to 500 nM |
| COc1ccc2c(c1)C=C(c1c(C(=O)N3C4CCC3CC4)cnn1C)Cn1c-2c(C2CCCCC2)c2ccc(C(=O)NS(=O)(=O)C(C)C)cc21 | 1 to 500 nM |

Source: patent publication US8143243B2, “Compounds for the treatment of hepatitis C” (Bristol-Myers Squibb Company, priority 2007, dated 2012)
